Experimental data: patent publication US20260028365A1 (BIOGEN MA INC., priority 2022, published 2026)
pIC50: −log10 of the molar value.

Experiments:
JH2 domain of human Tyk2 = JH2 domain of human Tyk2 (Homo sapiens (Human), UniProt P29597); test: JH2 Biochemical Assay (TR-FRET probe displacement); format: binding
Protocol: The inhibitory potency of compounds of the disclosure against the kinase activity of recombinantly generated JH2 domain of human Tyk2 was evaluated in a plate-based assay using a TR-FRET assay platform. Briefly, 2 nM of recombinant JH2 domain [10×His-tagged TYK2 JH2 domain (amino acid 575-876)] was combined with 2 nM probe ((S)-6-amino-9-(2-carboxy-4-((1-(3-(8-methyl-5-(methylamino)-8H-imidazo[4,5-d]thiazolo[5,4-b]pyridin-2-yl)phenyl)ethyl)carbamoyl)phenyl)-3-iminio-5-sulfo-3H-xanthene-4-sulfonate), 0.1 nM Tb-labeled anti-His antibody, and compounds of disclosure for 60 minutes. Compounds are tested at either 10 μM or 1 μM top concentration, 10 points of 3-fold dilution. The TR-FRET signal inversely correlates to the amount of probe displaced by compounds and signal was calculated by taking the ratio of fluorescence at 520 nm and 495 nm. The data was normalized and the percent activity versus log concentration of compound was fitted with a 4-parameter logistic model to generate IC50 curves.

Tyk2 = Tyk2 (Homo sapiens (Human), UniProt P29597); test: pSTAT4 Cell Assay (MSD, NK92 cells); format: cell-based; conditions: MSD
Chain of Tyk2 (P29597 whole entry, the tested form may be a part): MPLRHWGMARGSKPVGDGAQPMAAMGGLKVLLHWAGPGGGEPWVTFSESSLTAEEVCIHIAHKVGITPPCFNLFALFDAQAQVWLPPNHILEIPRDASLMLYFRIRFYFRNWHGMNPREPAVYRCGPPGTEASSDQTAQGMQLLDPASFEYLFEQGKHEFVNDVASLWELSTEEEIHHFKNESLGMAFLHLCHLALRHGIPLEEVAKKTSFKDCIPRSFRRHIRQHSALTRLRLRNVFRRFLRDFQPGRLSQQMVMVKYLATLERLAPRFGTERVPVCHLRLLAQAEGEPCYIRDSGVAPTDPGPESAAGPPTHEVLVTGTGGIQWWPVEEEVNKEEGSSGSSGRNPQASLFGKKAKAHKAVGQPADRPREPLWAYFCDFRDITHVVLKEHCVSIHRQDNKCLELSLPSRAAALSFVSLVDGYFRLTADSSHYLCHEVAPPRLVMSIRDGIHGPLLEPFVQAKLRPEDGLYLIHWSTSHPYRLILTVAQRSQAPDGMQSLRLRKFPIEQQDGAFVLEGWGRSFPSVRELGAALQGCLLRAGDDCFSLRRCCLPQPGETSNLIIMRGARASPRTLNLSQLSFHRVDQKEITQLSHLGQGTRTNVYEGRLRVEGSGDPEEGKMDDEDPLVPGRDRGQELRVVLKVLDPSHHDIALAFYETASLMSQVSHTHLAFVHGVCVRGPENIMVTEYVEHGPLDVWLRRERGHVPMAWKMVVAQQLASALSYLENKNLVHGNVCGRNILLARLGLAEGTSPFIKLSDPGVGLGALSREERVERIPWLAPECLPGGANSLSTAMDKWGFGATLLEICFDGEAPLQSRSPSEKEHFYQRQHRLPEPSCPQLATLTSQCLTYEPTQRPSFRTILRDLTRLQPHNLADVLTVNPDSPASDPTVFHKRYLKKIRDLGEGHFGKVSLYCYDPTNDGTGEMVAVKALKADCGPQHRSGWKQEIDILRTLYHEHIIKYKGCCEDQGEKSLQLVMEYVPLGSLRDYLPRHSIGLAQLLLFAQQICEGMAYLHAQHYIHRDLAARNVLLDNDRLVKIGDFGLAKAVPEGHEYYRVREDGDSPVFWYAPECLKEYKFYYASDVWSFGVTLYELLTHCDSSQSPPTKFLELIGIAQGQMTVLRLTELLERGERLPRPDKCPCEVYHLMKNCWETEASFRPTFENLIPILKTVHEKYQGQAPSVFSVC

[1] = TR-FRET probe displacement, JH2 domain of human Tyk2
[2] = JH2 domain of human Tyk2, TR-FRET probe displacement

Chain of JH2 domain of human Tyk2 (P29597 575-876): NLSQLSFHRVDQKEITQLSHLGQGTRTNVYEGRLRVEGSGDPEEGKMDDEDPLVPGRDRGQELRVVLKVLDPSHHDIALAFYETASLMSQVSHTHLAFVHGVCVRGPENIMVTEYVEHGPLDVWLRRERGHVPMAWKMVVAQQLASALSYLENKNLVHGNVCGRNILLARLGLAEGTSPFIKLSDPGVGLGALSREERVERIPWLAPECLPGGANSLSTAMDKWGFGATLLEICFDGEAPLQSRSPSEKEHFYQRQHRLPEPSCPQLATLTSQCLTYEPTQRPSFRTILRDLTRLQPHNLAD

CC(=O)Nc1cc(Nc2cc(C)nc(C(C)(F)F)n2)c([C@H]2CCCO2)cn1 (single isomer, unassigned) [Example 278, (R)-N-(4-((2-(1,1-difluoroethyl)-6-methylpyrimidin-4-yl)amino)-5-(tetrahydrofuran-2-yl)pyridin-2-yl)acetamide or (S)—N-(4-((2-(1,1-difluoroethyl)-6-methylpyrimidin-4-yl)amino)-5-(tetrahydrofuran-2-yl)pyridin-2-yl)acetamide]
pIC50 (JH2 domain of human Tyk2; [1]): 7.00 to 8.00 | pIC50 (Tyk2): ≤ 6.00

CC(=O)Nc1cc(Nc2cc(C)nc(C(C)(F)F)n2)c([C@@H]2CCCO2)cn1 (single isomer, unassigned) [Example 279, (S)—N-(4-((2-(1,1-difluoroethyl)-6-methylpyrimidin-4-yl)amino)-5-(tetrahydrofuran-2-yl)pyridin-2-yl)acetamide or (R)-N-(4-((2-(1,1-difluoroethyl)-6-methylpyrimidin-4-yl)amino)-5-(tetrahydrofuran-2-yl)pyridin-2-yl)acetamide]
pIC50 (JH2 domain of human Tyk2; [1]): 7.00 to 8.00 | pIC50 (Tyk2): 6.00 to 7.00

CC(=O)Nc1cc(Nc2cc(C)nc(C(C)(F)F)n2)c(OC[C@@H]2CCCO2)cn1 (single isomer, unassigned) [Example 293, (S)-N-(4-((2-(1,1-difluoroethyl)-6-methylpyrimidin-4-yl)amino)-5-((tetrahydrofuran-2-yl)methoxy)pyridin-2-yl)acetamide or (R)-N-(4-((2-(1,1-difluoroethyl)-6-methylpyrimidin-4-yl)amino)-5-((tetrahydrofuran-2-yl)methoxy)pyridin-2-yl)acetamide]
pIC50 (JH2 domain of human Tyk2; [1]): ≥ 8.00 | pIC50 (Tyk2): 7.00 to 8.00

CC(=O)Nc1cc(Nc2cc(C)nc(C(C)(F)F)n2)c(-c2cccc([C@@H]3CN(C)CCO3)n2)cn1 (single isomer, unassigned) [Example 641, (S)-N-(4′-((2-(1,1-difluoroethyl)-6-methylpyrimidin-4-yl)amino)-6-(4-methylmorpholin-2-yl)-[2,3′-bipyridin]-6′-yl)acetamide or (R)-N-(4′-((2-(1,1-difluoroethyl)-6-methylpyrimidin-4-yl)amino)-6-(4-methylmorpholin-2-yl)-[2,3′-bipyridin]-6′-yl)acetamide]
pIC50 (JH2 domain of human Tyk2; [2]): ≥ 8.00 | pIC50 (Tyk2): ≥ 8.00

CC(=O)Nc1cc(Nc2cc(C)nc(C(C)(F)F)n2)c(-c2ccc([C@@H]3CN(C)CCO3)cn2)cn1 (single isomer, unassigned) [Example 643, (R)-N-(4′-((2-(1,1-difluoroethyl)-6-methylpyrimidin-4-yl)amino)-5-(4-methylmorpholin-2-yl)-[2,3′-bipyridin]-6′-yl)acetamide or (S)-N-(4′-((2-(1,1-difluoroethyl)-6-methylpyrimidin-4-yl)amino)-5-(4-methylmorpholin-2-yl)-[2,3′-bipyridin]-6′-yl)acetamide]
pIC50 (JH2 domain of human Tyk2; [2]): ≥ 8.00 | pIC50 (Tyk2): ≥ 8.00

CC(=O)Nc1cc(Nc2cc(C)nc(C(C)(F)F)n2)c(-c2ccc([C@H]3CN(C)CCO3)cn2)cn1 (single isomer, unassigned) [Example 644, (S)-N-(4′-((2-(1,1-difluoroethyl)-6-methylpyrimidin-4-yl)amino)-5-(4-methylmorpholin-2-yl)-[2,3′-bipyridin]-6′-yl)acetamide or (R)-N-(4′-((2-(1,1-difluoroethyl)-6-methylpyrimidin-4-yl)amino)-5-(4-methylmorpholin-2-yl)-[2,3′-bipyridin]-6′-yl)acetamide]
pIC50 (JH2 domain of human Tyk2; [2]): ≥ 8.00 | pIC50 (Tyk2): ≥ 8.00

CC(=O)Nc1cc(Nc2cc(C)nc(C(C)(F)F)n2)c(OC[C@H]2CCC[C@@H](C)O2)cn1 (stereo in doubt) [Example 418, Cis-rac-N-(4-((2-(1,1-difluoroethyl)-6-methylpyrimidin-4-yl)amino)-5-(((2R,6R)-6-methyltetrahydro-2H-pyran-2-yl)methoxy)pyridin-2-yl)acetamide]
pIC50 (JH2 domain of human Tyk2; [2]): ≥ 8.00 | pIC50 (Tyk2): ≥ 8.00

CC(=O)Nc1cc(Nc2cc(C)nc(C(C)(F)F)n2)c(OC[C@@H]2CCC[C@H](C)O2)cn1 (stereo in doubt) [Example 442, Cis-rac-N-(4-((2-(1,1-difluoroethyl)-6-methylpyrimidin-4-yl)amino)-5-((6-methyltetrahydro-2H-pyran-2-yl)methoxy)pyridin-2-yl)acetamide]
pIC50 (JH2 domain of human Tyk2; [2]): 7.00 to 8.00 | pIC50 (Tyk2): 7.00 to 8.00

CCOc1cnc(NC(C)=O)cc1Nc1cc(C(C)(F)F)ccn1 [Example 2, N-(4-((4-(1,1-difluoroethyl)pyridin-2-yl)amino)-5-ethoxypyridin-2-yl)acetamide]
pIC50 (JH2 domain of human Tyk2; [1]): 7.00 to 8.00 | pIC50 (Tyk2): ≤ 6.00

CC(=O)Nc1cc(Nc2ccnc(C(C)(F)F)n2)c(OC(C)C)cn1 [Example 8, N-(4-((2-(1,1-difluoroethyl)pyrimidin-4-yl)amino)-5-isopropoxypyridin-2-yl)acetamide]
pIC50 (JH2 domain of human Tyk2; [1]): ≥ 8.00 | pIC50 (Tyk2): 6.00 to 7.00

CCOc1cnc(NC(=O)CC)cc1Nc1cc(C)nc(C(C)(F)F)n1 [Example 9, N-(4-((2-(1,1-difluoroethyl)-6-methylpyrimidin-4-yl)amino)-5-ethoxypyridin-2-yl)propionamide]
pIC50 (JH2 domain of human Tyk2; [1]): ≥ 8.00 | pIC50 (Tyk2): 7.00 to 8.00

CCOc1cnc(NC(C)=O)cc1Nc1cc(O[C@H]2C[C@@H](OC)C2)cc(C(C)(F)F)n1 [Example 15, N-(4-((6-(1,1-difluoroethyl)-4-((1s,3s)-3-methoxycyclobutoxy)pyridin-2-yl)amino)-5-ethoxypyridin-2-yl)acetamide]
pIC50 (JH2 domain of human Tyk2; [1]): ≥ 8.00 | pIC50 (Tyk2): 7.00 to 8.00

COc1cc(Nc2cc(NC(C)=O)ncc2OC)nc(C(C)(F)F)n1 [Example 18, N-(4-((2-(1,1-difluoroethyl)-6-methoxypyrimidin-4-yl)amino)-5-methoxypyridin-2-yl)acetamide]
pIC50 (JH2 domain of human Tyk2; [1]): ≥ 8.00 | pIC50 (Tyk2): 7.00 to 8.00

CC(=O)Nc1cc(Nc2cc(C)nc(C(C)(F)F)n2)c(OCC(F)(F)F)cn1 [Example 23, N-(4-((2-(1,1-difluoroethyl)-6-methylpyrimidin-4-yl)amino)-5-(2,2,2-trifluoroethoxy)pyridin-2-yl)acetamide]
pIC50 (JH2 domain of human Tyk2; [1]): ≥ 8.00 | pIC50 (Tyk2): 6.00 to 7.00

CC(=O)Nc1cc(Nc2cc(C)nc(C(C)(F)F)n2)c(OCC(F)F)cn1 [Example 24, N-(5-(2,2-difluoroethoxy)-4-((2-(1,1-difluoroethyl)-6-methylpyrimidin-4-yl)amino)pyridin-2-yl)acetamide]
pIC50 (JH2 domain of human Tyk2; [1]): ≥ 8.00 | pIC50 (Tyk2): 7.00 to 8.00

CC(=O)Nc1cc(Nc2cc(C)nc(C(C)(F)F)n2)c(OCCN(C)C)cn1 [Example 25, N-(4-((2-(1,1-difluoroethyl)-6-methylpyrimidin-4-yl)amino)-5-(2-(dimethylamino)ethoxy)pyridin-2-yl)acetamide]
pIC50 (JH2 domain of human Tyk2; [1]): ≥ 8.00 | pIC50 (Tyk2): 7.00 to 8.00

CCOc1cnc(NC(=O)COC)cc1Nc1cc(C)nc(C(C)(F)F)n1 [Example 26, N-(4-((2-(1,1-difluoroethyl)-6-methylpyrimidin-4-yl)amino)-5-ethoxypyridin-2-yl)-2-methoxyacetamide]
pIC50 (JH2 domain of human Tyk2; [1]): ≥ 8.00 | pIC50 (Tyk2): 7.00 to 8.00

CCOc1cnc(NC(=O)CCOC)cc1Nc1cc(C)nc(C(C)(F)F)n1 [Example 27, N-(4-((2-(1,1-difluoroethyl)-6-methylpyrimidin-4-yl)amino)-5-ethoxypyridin-2-yl)-3-methoxypropanamide]
pIC50 (JH2 domain of human Tyk2; [1]): ≥ 8.00 | pIC50 (Tyk2): 6.00 to 7.00

CC(=O)Nc1cc(Nc2cc(C)nc(C(C)(F)F)n2)c(OCc2ccccc2)cn1 [Example 30, N-(5-(benzyloxy)-4-((2-(1,1-difluoroethyl)-6-methylpyrimidin-4-yl)amino)pyridin-2-yl)acetamide]
pIC50 (JH2 domain of human Tyk2; [1]): ≥ 8.00 | pIC50 (Tyk2): ≥ 8.00

CCOc1cnc(NC(C)=O)cc1Nc1ccnc(C(C)(C)F)n1 [Example 31, N-(5-ethoxy-4-((2-(2-fluoropropan-2-yl)pyrimidin-4-yl)amino)pyridin-2-yl)acetamide]
pIC50 (JH2 domain of human Tyk2; [1]): ≥ 8.00 | pIC50 (Tyk2): 7.00 to 8.00

CCOc1cnc(NC(C)=O)cc1Nc1nc(C(C)(F)F)ncc1F [Example 34, N-(4-((2-(1,1-difluoroethyl)-5-fluoropyrimidin-4-yl)amino)-5-ethoxypyridin-2-yl)acetamide]
pIC50 (JH2 domain of human Tyk2; [1]): 7.00 to 8.00 | pIC50 (Tyk2): ≤ 6.00

CCOc1cnc(NC(C)=O)cc1Nc1nc(C(C)(F)F)nc(C)c1F [Example 35, N-(4-((2-(1,1-difluoroethyl)-5-fluoro-6-methylpyrimidin-4-yl)amino)-5-ethoxypyridin-2-yl)acetamide]
pIC50 (JH2 domain of human Tyk2; [1]): ≥ 8.00 | pIC50 (Tyk2): 6.00 to 7.00

CC(=O)Nc1cc(Nc2ccnc(C(C)(F)F)n2)c(OC2CC2)cn1 [Example 38, N-(5-cyclopropoxy-4-((2-(1,1-difluoroethyl)pyrimidin-4-yl)amino)pyridin-2-yl)acetamide]
pIC50 (JH2 domain of human Tyk2; [1]): ≥ 8.00 | pIC50 (Tyk2): 6.00 to 7.00

COC1CC(COc2cnc(NC(C)=O)cc2Nc2cc(C)nc(C(C)(F)F)n2)C1 (stereo not shown) [Example 40, N-(4-((2-(1,1-difluoroethyl)-6-methylpyrimidin-4-yl)amino)-5-((3-methoxycyclobutyl)methoxy)pyridin-2-yl)acetamide]
pIC50 (JH2 domain of human Tyk2; [1]): ≥ 8.00 | pIC50 (Tyk2): 7.00 to 8.00

CC(=O)Nc1cc(Nc2cc(C)nc(C(C)(F)F)n2)c(C)cn1 [Example 41, N-(4-((2-(1,1-difluoroethyl)-6-methylpyrimidin-4-yl)amino)-5-methylpyridin-2-yl)acetamide]
pIC50 (JH2 domain of human Tyk2; [1]): 7.00 to 8.00 | pIC50 (Tyk2): 6.00 to 7.00

CCc1cnc(NC(C)=O)cc1Nc1cc(C)nc(C(C)(F)F)n1 [Example 42, N-(4-((2-(1,1-difluoroethyl)-6-methylpyrimidin-4-yl)amino)-5-ethylpyridin-2-yl)acetamide]
pIC50 (JH2 domain of human Tyk2; [1]): 7.00 to 8.00 | pIC50 (Tyk2): ≤ 6.00
